Results: ChEMBL document CHEMBL3885861, “Open TG-GATES”

Organism: Rattus norvegicus
Test: Open TG-GATES - Regimen: Daily Repeat
Format: toxicity, organism-based, Sprague-Dawley
Design: regimen Daily Repeat, gender Male, age 6 weeks
Conditions: in vivo, po, route gavage; for APTT / Bas / Eos / Fbg / Hb / Ht / Lym / MCH / MCHC / MCV / Mono / Neu / PT / Plat / RBC / Ret / WBC: tissue Blood; for KIDNEY_L / KIDNEY_R / KIDNEY_TOTAL: tissue Kidney; for LIVER: tissue Liver; for A/G / ALP / ALT / AST / BUN / CRE / Ca / Cl / DBIL / GLC / IP / K / LDH / Na / PL / RALB / TBIL / TC / TG / TP / gamma-GTP: tissue Plasma
[1] = 100 mg/kg, 72 h, dose level Middle, time 3 day
[2] = 100 mg/kg, […], dose level Middle, time 7 day
[3] = 100 mg/kg, […], dose level Middle, time 14 day
[4] = 100 mg/kg, […], dose level Middle, time 28 day
[5] = 300 mg/kg, 72 h, dose level High, time 3 day
[6] = 300 mg/kg, […], dose level High, time 7 day
[7] = 300 mg/kg, […], dose level High, time 14 day
[8] = 300 mg/kg, […], dose level High, time 28 day

CCCNC(=O)NS(=O)(=O)c1ccc(Cl)cc1 [CHLORPROPAMIDE]
TERMINAL_BW [1]: 208.2 g
APTT [1]: 17.5 s
Bas [1]: 0%
Eos [1]: 1%
Fbg [1]: 275.8 mg/dL
Hb [1]: 13 g/dL
Ht [1]: 40.2%
Lym [1]: 77.2%
MCH [1]: 20.8 pg
MCHC [1]: 32.5%
MCV [1]: 64.1 fL
Mono [1]: 2.6%
Neu [1]: 18.2%
PT [1]: 16.2 s
Plat [1]: 111.5 x10_4/uL
RBC [1]: 626.8 x10_4/ul
Ret [1]: 6.2%
WBC [1]: 65.6 x10_2/uL
KIDNEY_L [1]: 0.9 g
KIDNEY_R [1]: 0.9 g
KIDNEY_TOTAL [1]: 1.8 g
LIVER [1]: 9.3 g
A/G [1]: 0.8
ALP [1]: 1720.4 IU/L
ALT [1]: 49.2 IU/L
AST [1]: 71.2 IU/L
BUN [1]: 17 mg/dL
CRE [1]: 0.2 mg/dL
Ca [1]: 10.6 mg/dL
Cl [1]: 106.6 meq/L
DBIL [1]: 0.008 mg/dL
GLC [1]: 174.6 mg/dL
IP [1]: 7.7 mg/dL
K [1]: 3.7 meq/L
LDH [1]: 65.6 IU/L
Na [1]: 142.6 meq/L
PL [1]: 154.6 mg/dL
RALB [1]: 2.6 g/dL
TBIL [1]: 0.022 mg/dL
TC [1]: 85.4 mg/dL
TG [1]: 76.6 mg/dL
TP [1]: 5.7 g/dL
gamma-GTP [1]: 1 IU/L
TERMINAL_BW [2]: 237.9 g
TERMINAL_BW [3]: 287.5 g
TERMINAL_BW [4]: 344.3 g
APTT [2]: 17.8 s
Bas [2]: 0%
Eos [2]: 1%
Fbg [2]: 277.2 mg/dL
Hb [2]: 13.2 g/dL
Ht [2]: 39.7%
Lym [2]: 77.8%
MCH [2]: 20.7 pg
MCHC [2]: 33.2%
MCV [2]: 62.3 fL
Mono [2]: 2.8%
Neu [2]: 17.2%
PT [2]: 16 s
Plat [2]: 112.6 x10_4/uL
RBC [2]: 638 x10_4/ul
Ret [2]: 6.6%
WBC [2]: 118.8 x10_2/uL
APTT [3]: 17.7 s
Bas [3]: 0.2%
Eos [3]: 0.8%
Fbg [3]: 275.8 mg/dL
Hb [3]: 13.8 g/dL
Ht [3]: 40.9%
Lym [3]: 79.4%
MCH [3]: 20.8 pg
MCHC [3]: 33.6%
MCV [3]: 62 fL
Mono [3]: 2.2%
Neu [3]: 16.4%
PT [3]: 16 s
Plat [3]: 107 x10_4/uL
RBC [3]: 660.4 x10_4/ul
Ret [3]: 4.7%
WBC [3]: 97.8 x10_2/uL
APTT [4]: 19.5 s
Bas [4]: 0%
Eos [4]: 1%
Fbg [4]: 290.4 mg/dL
Hb [4]: 14.6 g/dL
Ht [4]: 43.4%
Lym [4]: 76.4%
MCH [4]: 19.4 pg
MCHC [4]: 33.5%
MCV [4]: 57.8 fL
Mono [4]: 2.6%
Neu [4]: 18.6%
PT [4]: 16.2 s
Plat [4]: 107.8 x10_4/uL
RBC [4]: 751 x10_4/ul
Ret [4]: 2.5%
WBC [4]: 90.2 x10_2/uL
KIDNEY_L [2]: 1 g
KIDNEY_R [2]: 1 g
KIDNEY_TOTAL [2]: 2 g
KIDNEY_L [3]: 1.2 g
KIDNEY_R [3]: 1.2 g
KIDNEY_TOTAL [3]: 2.4 g
KIDNEY_L [4]: 1.2 g
KIDNEY_R [4]: 1.3 g
KIDNEY_TOTAL [4]: 2.5 g
LIVER [2]: 11.4 g
LIVER [3]: 13.6 g
LIVER [4]: 14.2 g
A/G [2]: 0.8
ALP [2]: 1392.6 IU/L
ALT [2]: 50 IU/L
AST [2]: 74.2 IU/L
BUN [2]: 18.2 mg/dL
CRE [2]: 0.2 mg/dL
Ca [2]: 10.8 mg/dL
Cl [2]: 107 meq/L
DBIL [2]: 0.01 mg/dL
GLC [2]: 194.2 mg/dL
IP [2]: 7.4 mg/dL
K [2]: 3.6 meq/L
LDH [2]: 81.8 IU/L
Na [2]: 144.4 meq/L
PL [2]: 162.2 mg/dL
RALB [2]: 2.6 g/dL
TBIL [2]: 0.03 mg/dL
TC [2]: 85.4 mg/dL
TG [2]: 105.4 mg/dL
TP [2]: 5.7 g/dL
gamma-GTP [2]: 1 IU/L
A/G [3]: 0.8
ALP [3]: 1782.8 IU/L
ALT [3]: 41 IU/L
AST [3]: 63 IU/L
BUN [3]: 18.8 mg/dL
CRE [3]: 0.2 mg/dL
Ca [3]: 10.6 mg/dL
Cl [3]: 105.8 meq/L
DBIL [3]: 0.01 mg/dL
GLC [3]: 208.4 mg/dL
IP [3]: 7.7 mg/dL
K [3]: 3.5 meq/L
LDH [3]: 99.6 IU/L
Na [3]: 144.6 meq/L
PL [3]: 170.2 mg/dL
RALB [3]: 2.7 g/dL
TBIL [3]: 0.02 mg/dL
TC [3]: 77.2 mg/dL
TG [3]: 175 mg/dL
TP [3]: 5.9 g/dL
gamma-GTP [3]: 1 IU/L
A/G [4]: 0.8
ALP [4]: 1238 IU/L
ALT [4]: 40.2 IU/L
AST [4]: 64 IU/L
BUN [4]: 16.2 mg/dL
CRE [4]: 0.2 mg/dL
Ca [4]: 10.4 mg/dL
Cl [4]: 107.4 meq/L
DBIL [4]: 0.008 mg/dL
GLC [4]: 196.6 mg/dL
IP [4]: 6.5 mg/dL
K [4]: 3.2 meq/L
LDH [4]: 72.6 IU/L
Na [4]: 144.8 meq/L
PL [4]: 158.8 mg/dL
RALB [4]: 2.7 g/dL
TBIL [4]: 0.016 mg/dL
TC [4]: 73.4 mg/dL
TG [4]: 149.6 mg/dL
TP [4]: 6 g/dL
gamma-GTP [4]: 1 IU/L
TERMINAL_BW [5]: 191.6 g
APTT [5]: 18.9 s
Bas [5]: 0.2%
Eos [5]: 1%
Fbg [5]: 316.6 mg/dL
Hb [5]: 13.3 g/dL
Ht [5]: 39.6%
Lym [5]: 80.6%
MCH [5]: 20.6 pg
MCHC [5]: 33.5%
MCV [5]: 61.6 fL
Mono [5]: 1.8%
Neu [5]: 15.2%
PT [5]: 16.2 s
Plat [5]: 110.6 x10_4/uL
RBC [5]: 645.4 x10_4/ul
Ret [5]: 3.8%
WBC [5]: 88.9 x10_2/uL
KIDNEY_L [5]: 0.8 g
KIDNEY_R [5]: 0.8 g
KIDNEY_TOTAL [5]: 1.7 g
LIVER [5]: 8.1 g
A/G [5]: 0.9
ALP [5]: 1546.2 IU/L
ALT [5]: 46 IU/L
AST [5]: 64.2 IU/L
BUN [5]: 14.8 mg/dL
CRE [5]: 0.2 mg/dL
Ca [5]: 10.6 mg/dL
Cl [5]: 109.8 meq/L
DBIL [5]: 0.002 mg/dL
GLC [5]: 166 mg/dL
IP [5]: 6.6 mg/dL
K [5]: 3.5 meq/L
LDH [5]: 63.2 IU/L
Na [5]: 142.4 meq/L
PL [5]: 154.8 mg/dL
RALB [5]: 2.6 g/dL
TBIL [5]: 0.02 mg/dL
TC [5]: 84.2 mg/dL
TG [5]: 55.6 mg/dL
TP [5]: 5.7 g/dL
gamma-GTP [5]: 1.2 IU/L
TERMINAL_BW [6]: 213.5 g
TERMINAL_BW [7]: 232.5 g
TERMINAL_BW [8]: 294.1 g
APTT [6]: 20.1 s
Bas [6]: 0%
Eos [6]: 1%
Fbg [6]: 286.8 mg/dL
Hb [6]: 13.1 g/dL
Ht [6]: 40.1%
Lym [6]: 81%
MCH [6]: 20.3 pg
MCHC [6]: 32.8%
MCV [6]: 62 fL
Mono [6]: 2.6%
Neu [6]: 14.6%
PT [6]: 16.4 s
Plat [6]: 111.5 x10_4/uL
RBC [6]: 647.8 x10_4/ul
Ret [6]: 5.6%
WBC [6]: 95.7 x10_2/uL
APTT [7]: 33.4 s
Bas [7]: 0%
Eos [7]: 0.8%
Fbg [7]: 283.2 mg/dL
Hb [7]: 14.4 g/dL
Ht [7]: 43.1%
Lym [7]: 83.6%
MCH [7]: 20.3 pg
MCHC [7]: 33.5%
MCV [7]: 60.5 fL
Mono [7]: 2.2%
Neu [7]: 12%
PT [7]: 16.6 s
Plat [7]: 105.9 x10_4/uL
RBC [7]: 712.6 x10_4/ul
Ret [7]: 3.8%
WBC [7]: 79.2 x10_2/uL
APTT [8]: 22.6 s
Bas [8]: 0.2%
Eos [8]: 0.8%
Fbg [8]: 282.6 mg/dL
Hb [8]: 14.5 g/dL
Ht [8]: 44.1%
Lym [8]: 78.2%
MCH [8]: 18.5 pg
MCHC [8]: 32.9%
MCV [8]: 56.1 fL
Mono [8]: 2.8%
Neu [8]: 16.8%
PT [8]: 16.7 s
Plat [8]: 93.9 x10_4/uL
RBC [8]: 786 x10_4/ul
Ret [8]: 2.3%
WBC [8]: 126.5 x10_2/uL
KIDNEY_L [6]: 0.9 g
KIDNEY_R [6]: 0.9 g
KIDNEY_TOTAL [6]: 1.8 g
KIDNEY_L [7]: 1 g
KIDNEY_R [7]: 1 g
KIDNEY_TOTAL [7]: 2.1 g
KIDNEY_L [8]: 1.2 g
KIDNEY_R [8]: 1.2 g
KIDNEY_TOTAL [8]: 2.4 g
LIVER [6]: 9.7 g
LIVER [7]: 11 g
LIVER [8]: 13.2 g
A/G [6]: 0.9
ALP [6]: 1590.8 IU/L
ALT [6]: 48 IU/L
AST [6]: 69.2 IU/L
BUN [6]: 18.6 mg/dL
CRE [6]: 0.2 mg/dL
Ca [6]: 10.9 mg/dL
Cl [6]: 110.8 meq/L
DBIL [6]: 0.004 mg/dL
GLC [6]: 187 mg/dL
IP [6]: 7.6 mg/dL
K [6]: 3.3 meq/L
LDH [6]: 68.4 IU/L
Na [6]: 145.2 meq/L
PL [6]: 165.2 mg/dL
RALB [6]: 2.6 g/dL
TBIL [6]: 0.016 mg/dL
TC [6]: 82.2 mg/dL
TG [6]: 60.2 mg/dL
TP [6]: 5.7 g/dL
gamma-GTP [6]: 1 IU/L
A/G [7]: 0.8
ALP [7]: 1780 IU/L
ALT [7]: 51 IU/L
AST [7]: 72.2 IU/L
BUN [7]: 17.6 mg/dL
CRE [7]: 0.2 mg/dL
Ca [7]: 10.3 mg/dL
Cl [7]: 111.2 meq/L
DBIL [7]: 0.004 mg/dL
GLC [7]: 182.6 mg/dL
IP [7]: 7.8 mg/dL
K [7]: 3.2 meq/L
LDH [7]: 85 IU/L
Na [7]: 145.2 meq/L
PL [7]: 158 mg/dL
RALB [7]: 2.7 g/dL
TBIL [7]: 0.012 mg/dL
TC [7]: 75 mg/dL
TG [7]: 72.4 mg/dL
TP [7]: 5.9 g/dL
gamma-GTP [7]: 1 IU/L
A/G [8]: 0.8
ALP [8]: 1231.8 IU/L
ALT [8]: 47.8 IU/L
AST [8]: 70 IU/L
BUN [8]: 20 mg/dL
CRE [8]: 0.2 mg/dL
Ca [8]: 10.5 mg/dL
Cl [8]: 110.4 meq/L
DBIL [8]: 0.002 mg/dL
GLC [8]: 196.4 mg/dL
IP [8]: 6.7 mg/dL
K [8]: 3 meq/L
LDH [8]: 67.4 IU/L
Na [8]: 146.4 meq/L
PL [8]: 148.6 mg/dL
RALB [8]: 2.7 g/dL
TBIL [8]: 0.008 mg/dL
TC [8]: 65.6 mg/dL
TG [8]: 89.4 mg/dL
TP [8]: 6 g/dL
gamma-GTP [8]: 1.2 IU/L
